Experiment: Crystallization test of EW formulations Dn (25-μm metal filter)
Type: physicochemical
Set-up: key to Crystallization: −: A minus sign indicates the absence of crystals; +: a plus sign indicates their presence
Settings: 5.0% pesticide in formulation Dn
Experimental: In the crystallization test, an emulsion consisting of 2% of the formulation in 98 ml of water was kept at 1° C. for 24 h and was then passed through a 25-μm metal filter. A minus sign indicates the absence of crystals, while a plus sign indicates their presence. […] The worst emulsion, which however was still acceptable, scored +, a good emulsion scored ++ and the best ones scored +++. Both the phase separation and the time of its occurrence were observed when evaluating the emulsion. […] A single + sign means that some oil did separate out after 2 hours.

| Compound | Crystallization problems (in words) |
| --- | --- |
| CCOC(=O)CSc1nc(C(C)(C)C)nn1C(=O)N(C)C [triazamate] | had crystallization problems |
| CC1CCCCC1NC(=O)Nc1ccccc1 (centres unmarked) [siduron] | had crystallization problems |

Same assay, conditions: 5.0% pesticide in formulation Dn; 2% of the formulation in 98 ml of water, 1° C. for 24 h, 25-μm metal filter

| Compound | Crystallization |
| --- | --- |
| CC(C)c1ccc(NC(=O)N(C)C)cc1 [isoproturon] | − |
| CNC(=O)Oc1cc(C)c(SC)c(C)c1 [methiocarb] | − |
| CC(C)(C)C(O)C(Cc1ccc(Cl)cc1)n1cncn1 (centres unmarked) [paclobutrazole] | − |
| C=CCOC(=O)C(C)(C)OC(=O)c1cc(-n2c(=O)cc(C(F)(F)F)n(C)c2=O)ccc1Cl [butafenacil] | − |
| CC1(C)CCC(Cc2ccc(Cl)cc2)C1(O)Cn1cncn1 (centres unmarked) [metconazole] | − |
| O=C(O)COc1ccc(Cl)cc1Cl [2,4-D] | − |
| COc1ccc(C(=CC(=O)N2CCOCC2)c2ccc(Cl)cc2)cc1OC [dimethomorph] | − |
| O=c1oc2ccccc2c(O)c1C(CC(O)c1ccc(-c2ccc(Br)cc2)cc1)c1ccccc1 (centres unmarked) [bromadiolone] | − |
| CC(C)(C)C(=O)C(Oc1ccc(Cl)cc1)n1cncn1 (centres unmarked) [triadimefon] | − |
| CC(C)(C)N(NC(=O)c1ccc(Cl)cc1)C(=O)c1ccccc1 [halofenozide] | − |
| C=CCOC(Cn1ccnc1)c1ccc(Cl)cc1Cl (centres unmarked) [imazalil] | − |
| Cc1ccc(NC(=O)N(C)C)cc1Cl [chlorotoluron] | − |
| C[Si](Cn1cncn1)(c1ccc(F)cc1)c1ccc(F)cc1 [flusilazole] | − |
| OC(c1ccc(F)cc1)(c1cncnc1)c1ccccc1Cl (centres unmarked) [nuarimol] | − |
| CCOC(=O)CSc1nc(C(C)(C)C)nn1C(=O)N(C)C [triazamate] | + |
| CC(C1CC1)C(O)(Cn1cncn1)c1ccc(Cl)cc1 (centres unmarked) [cyproconazole] | − |
| Cc1cc(Cl)ccc1OCC(=O)O [MCPA] | − |
| CCOc1ccccc1OS(=O)(=O)NC(=O)Nc1nc(OC)cc(OC)n1 [ethoxysulfuron] | − |
| OC(Cc1ccccc1Cl)(Cn1nc[nH]c1=S)C1(Cl)CC1 (centres unmarked) [prothioconazole] | − |
| Clc1ccc(C2(Cn3cncn3)CC(Br)CO2)c(Cl)c1 (centres unmarked) [bromuconazole] | − |
| CC1COC(Cn2cncn2)(c2ccc(Oc3ccc(Cl)cc3)cc2Cl)O1 (centres unmarked) [difenconazole] | − |

| Compound | Crystallization |
| --- | --- |
| COP(=S)(OC)SCn1nnc2ccccc2c1=O [azinphos-methyl] | − |
| C/C(=N/Nc1nc(C)cc(C)n1)c1ccccc1C [ferimzone] | − |
| CCC(=O)Nc1ccc(Cl)c(Cl)c1 [propanil] | − |
| CCOP(=S)(OCC)Oc1ccc(=O)n(-c2ccccc2)n1 [pyridaphenthion] | − |
| c1coc(-c2nc3ccccc3[nH]2)c1 [fuberidazole] | − |
| Cc1ccc(C(C)NC(=O)[C@@H](NC(=O)OC(C)C)C(C)C)cc1 (some centres unmarked) [iprovalicarb] | − |
| CCOC(=O)C1=NN(c2ccc(Cl)cc2Cl)C(C)(C(=O)OCC)C1 (centres unmarked) [mefenpyr-diethyl] | − |
| COC(=O)C(C)N(C(=O)c1ccco1)c1c(C)cccc1C (centres unmarked) [furalaxyl] | − |
| CC1CCCCC1NC(=O)Nc1ccccc1 (centres unmarked) [siduron] | + |
| CCNc1nc(NCC)nc(SC)n1 [simetryn] | − |
| CON(C)C(=O)Nc1ccc(Cl)c(Cl)c1 [linuron] | − |
| O=c1oc2ccccc2c(O)c1C1CCCc2ccccc21 (centres unmarked) [coumatetralyl] | + |
| CCC1(CC2(c3cccc(Cl)c3)CO2)C(=O)c2ccccc2C1=O (centres unmarked) [indanofan] | − |
| CN(C)C(=O)Nc1ccc(Cl)c(Cl)c1 [diuron] | − |
| CS(=O)(=O)NC(=O)c1cc(Oc2ccc(C(F)(F)F)cc2Cl)ccc1[N+](=O)[O-] [fomesafen] | − |
| CCNc1nc(Cl)nc(NC(C)C)n1 [atrazine] | − |
| CC(C)(C)C(O)C(Oc1ccc(Cl)cc1)n1cncn1 (centres unmarked) [triadimenol] | − |
| CC(C)(C)C(O)(CCc1ccc(Cl)cc1)Cn1cncn1 (centres unmarked) [tebuconazole] | − |
| CC1(C(=O)Nc2ccc(O)c(Cl)c2Cl)CCCCC1 [fenhexamid] | − |
| O=C(O)C1(C(=O)Nc2ccc(Cl)cc2Cl)CC1 [cyclanilide] | − |

Experiment: Risk of crystallization of pesticides in ECs and EWs
Type: physicochemical
Settings: conventional recipes; EW with less than 10% of water
Excerpt: This is what happened in the case of both EP655197 and EP453899, where the compositions for which the disclosed anticrystallization agents (N,N-dialkylamides) cover the whole range of triazoles with a fungicidal action, without giving examples of all of the compositions in which it is appropriate to use N,N-dimethylalkylamides. […] Propioconazole is an example.
The inventors have established that it is not the similarly of the chemical structure that puts the pesticide “at risk” of crystallization in ECs and EWs, but instead it is much more sensible to evaluate certain experimental parameters (or parameters that are calculated semi-empirically) in order to predict the risk of crystallization. In numerous tests, the inventors have found some pesticides with a risk of crystallization and others without. This risk refers in concrete terms to what happens when 5 ml of the EC or EW is diluted with 95 ml of water and kept in a refrigerator (at 1° C.), after which the emulsion is passed through a 5-μm filter 7 days later.

| Compound | Crystallization problems in an emulsifiable concentrate (EC) or emulsion in water (EW) |
| --- | --- |
| Propioconazole | free of crystallization problems |

From patent US20080255127A1, “Pesticide Formulations with a Crystallization Risk, and a Method for Their Preparation” (priority 2005, published 2008)
